Test results taken from patent US20210214359A1, “Compounds and Methods for Treating Bacterial Infections” (NEW YORK UNIVERSITY, priority 2018, published 2021).

Key:
[1] = target: T1, S. aureus CSE (Staphylococcus aureus, UniProt A0A0H3K724); assay: H2S produced by purified CSE in vitro; format: biochemical; conditions: read-out: IC50, reduction of enzymatic activity (H2S produced by purified CSE)
Description: (§1) The amount of H2S produced by purified CSE was measured in the presence of the compound of Ex. 80 and found strong reduction of enzymatic activity with IC50 about 100 nM (FIG. 2B). This IC50 values are 10- to 400-fold lower than those determined for conventional CSE inhibitors and correlates well with its binding affinity, KD, as determined by MicroScale Thermophoresis (MST) (FIG. 2C).

[2] = tested on: methicillin-resistant USA300 strain; assay: growth inhibition test in combination with methicillin; format: cell-based, S. aureus; conditions: for bacterial growth, agent alone: single agent
Description: (§2) FIG. 3 illustrates inhibition of culture growth of drug-resistant S. aureus by (A) the compound of Ex. 80 (GO-0001197; labeled as #9077) (30 μM) and 50% MIC of methicillin (Met) in methicillin-resistant USA300 strain; or by (B) the compound of Ex. 80 (30 μM) and 50% MIC of vancomycin (Van) in vancomycin-resistant RN10659 strain.
(§3) Because H2S inhibitors dramatically reduce the effective dose of antibiotics, they may potentiate or augment the activity of antibiotics in the strains that acquired resistance to these antibiotics. The compound of Ex. 80 (GO-0001197) was evaluated with two clinically relevant antibiotics, methicillin and vancomycin, which have different mechanisms of resistance.

[3] = tested on: vancomycin-resistant RN10659 strain; assay: growth inhibition test in combination with vancomycin; format: cell-based, S. aureus; conditions: for bacterial growth, agent alone: single agent
Description: as §2, §3

[4] = tested on: human BJ cell line; assay: IncuCyte Cytotoxicity Assay; format: cell-based
Description: To determine toxicity of the compounds of the disclosure, an IncuCyte™ Cytotoxicity Assay (Essen BioScience) in the human BJ cell line was conducted. Cell cultures were supplemented with a chemical probe which entered the cell and labeled nuclei green fluorescence as cells die and membrane integrity is lost. Nuclei of live cells were labeled with red fluorescence. […] This cytotoxic concentration was over 50-fold higher than the optimal concentration of the compound of Ex. 80 for bacterial growth inhibition in liquid culture in combination with 10% MIC of gentamicin. Therefore, the compounds of the disclosure show low cytotoxicity in human cell lines and present desirable targets for the development of compositions for treating bacterial infections.

[5] = tested on: HeLa cells; assay: cytotoxicity in HeLa cells using a different assay; format: cell-based
[6] = target: T1, S. aureus CSE; assay: binding to CSE by MicroScale Thermophoresis (MST)
Description: as §1

[7] = tested on: S. aureus RN4220; assay: growth inhibition assay in liquid culture, potentiation of gentamicin (Gm); format: cell-based; conditions: compound at 0.375 μg/mL
Source text: The compounds of the invention were screened in a growth inhibition assay in liquid culture of nonpathogenic S. aureus RN4220 to directly test whether a hit compound can potentiate the action of gentamicin (Gm) added at ≤10% the minimal inhibitory concentration (MIC). Gentamicin is a ribosome-targeting bactericidal antibiotic induces oxidative stress and is effective against MRSA strains. Although gentamicin is not a first-line antibiotic for monotherapy of staphylococcal infection, it is used in combination with vancomycin or β-lactams to treat serious infections, such as endocarditis.
The MIC results for the remaining compounds of the disclosure are provided in Table 2. % MIC activity of 51-100 is labeled “+”, % MIC activity of 21-50 is labeled “++”, and % MIC activity of ≤20 is labeled “+++”.

T1 sequence (A0A0H3K724 entry or part of it): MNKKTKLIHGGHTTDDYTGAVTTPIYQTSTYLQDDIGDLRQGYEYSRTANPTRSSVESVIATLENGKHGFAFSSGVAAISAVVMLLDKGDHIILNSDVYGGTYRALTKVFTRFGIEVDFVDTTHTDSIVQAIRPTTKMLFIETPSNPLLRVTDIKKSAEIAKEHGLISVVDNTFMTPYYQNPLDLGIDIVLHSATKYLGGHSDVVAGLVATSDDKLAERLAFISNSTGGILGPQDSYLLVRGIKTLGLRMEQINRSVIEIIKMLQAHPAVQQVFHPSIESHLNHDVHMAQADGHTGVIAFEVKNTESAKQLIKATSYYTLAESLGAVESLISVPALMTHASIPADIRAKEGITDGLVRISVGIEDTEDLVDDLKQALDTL

O=C(O)CNC(=O)Cn1ccc2ccc(Br)cc21 [Example 80, (2-(6-bromo-1H-indol-1-yl)acetyl)glycine]
IC50 [1]: ~0.1 µM
bacterial growth in co-treatment with methicillin ([2]; Ex. 80 10 μg/mL + methicillin 5 μg/mL): inhibition of bacterial growth
bacterial growth, agent alone [2]: did not affect bacterial growth
bacterial growth in co-treatment with vancomycin ([3]; Ex. 80 10 μg/mL + vancomycin 2 μg/mL): inhibition of bacterial growth
bacterial growth, agent alone [3]: did not affect bacterial growth
concentration at which more than a half of the cells died ([4]; human): 1,250 μM
concentration at which practically all cells died ([4]; human): 2,500 μM
concentration at which the compound becomes toxic to cells (conservative estimation) ([4]; human): ~500 µM
concentration at which the number of dead cells started to increase ([4]; human): 625 µM
cytotoxic concentration fold higher than optimal concentration for bacterial growth inhibition ([4]; versus liquid culture with 10% MIC of gentamicin): over 50 fold
cytotoxic concentration [5]: ~400 µM

C#CCC(N)C(=O)O (stereo not shown) [PAG, propargylglycine]
Kd [6]: ~90 µM
fold higher KD than Ex. 80 ([6]; MST, CSE): 225 fold

CN[C@H](CC(C)C)C(=O)N[C@H]1C(=O)N[C@@H](CC(N)=O)C(=O)N[C@H]2C(=O)N[C@H]3C(=O)N[C@H](C(=O)N[C@H](C(=O)O)c4cc(O)cc(O)c4-c4cc3ccc4O)[C@H](O)c3ccc(c(Cl)c3)Oc3cc2cc(c3O[C@@H]2O[C@H](CO)[C@@H](O)[C@H](O)[C@H]2O[C@H]2C[C@](C)(N)[C@H](O)[C@H](C)O2)Oc2ccc(cc2Cl)[C@H]1O [vancomycin, reference compound]
bacterial growth, agent alone [3]: only slowed down growth

COc1cccc(OC)c1C(=O)N[C@@H]1C(=O)N2[C@@H]1SC(C)(C)[C@@H]2C(=O)O [methicillin, reference compound]
bacterial growth, agent alone [2]: only slowed down growth

O=C(O)c1cc(Cn2ccc3ccc(-c4cc5cccc(Cl)c5s4)cc32)[nH]n1 [Example 68, 5-{[6-(7-chloro-1-benzothiophen-2-yl)-1H-indol-1-yl]methyl}-1H-pyrazole-3-carboxylic acid]
% MIC at 0.375 μg/mL [7]: 10 (% MIC at 0.375 μg/mL)
